Data taken from PubChem BioAssay (NCI).
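Following 48 hours of exposure in 96-well plates, responses at five concentrations were used to interpolate endpoints linearly. TGI marks complete inhibition of growth.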

Columns and labels:
Test in all cases: NCI-60 cell line screen, 48 h
[1] = tested on: 786-0 renal
[2] = tested on: A498 renal
[3] = tested on: A549 NSCLC
[4] = tested on: ACHN renal
[5] = tested on: BT-549 breast
[6] = tested on: CAKI-1 renal
[7] = tested on: CCRF-CEM leukemia
[8] = tested on: COLO 205 colon
[9] = tested on: DU-145 prostate
[10] = tested on: EKVX NSCLC
[11] = tested on: HCC-2998 colon
[12] = tested on: HCT-116 colon
[13] = tested on: HCT-15 colon
[14] = tested on: HL-60(TB) leukemia
[15] = tested on: HOP-62 NSCLC
[16] = tested on: HOP-92 NSCLC
[17] = tested on: HS 578T breast
[18] = tested on: HT29 colon
[19] = tested on: IGROV1 ovarian
[20] = tested on: K-562 leukemia
[21] = tested on: KM12 colon
[22] = tested on: LOX IMVI melanoma
[23] = tested on: MALME-3M melanoma
[24] = tested on: MCF7 breast
[25] = tested on: MDA-MB-231 breast
[26] = tested on: MDA-MB-435
[27] = tested on: MDA-N
[28] = tested on: MOLT-4 leukemia
[29] = tested on: NCI-H226 lung
[30] = tested on: NCI-H23 lung
[31] = tested on: NCI-H460 lung
[32] = tested on: NCI-H522 lung
[33] = tested on: NCI/ADR-RES ovarian
[34] = tested on: OVCAR-3 ovarian
[35] = tested on: OVCAR-4 ovarian
[36] = tested on: OVCAR-5 ovarian
[37] = tested on: OVCAR-8 ovarian
[38] = tested on: PC-3 prostate
[39] = tested on: RPMI-8226 leukemia
[40] = tested on: RXF 393 renal
[41] = tested on: SF-268 CNS
[42] = tested on: SF-539 CNS
[43] = tested on: SK-MEL-2 melanoma
[44] = tested on: SK-MEL-28 melanoma
[45] = tested on: SK-MEL-5 melanoma
[46] = tested on: SK-OV-3 ovarian
[47] = tested on: SN12C renal
[48] = tested on: SNB-19 CNS
[49] = tested on: SR leukemia
[50] = tested on: SW-620 colon
[51] = tested on: T-47D breast
[52] = tested on: TK-10 renal
[53] = tested on: U251 CNS
[54] = tested on: UACC-257 melanoma
[55] = tested on: UACC-62 melanoma
[56] = tested on: UO-31 renal
[57] = tested on: M14 melanoma
[58] = tested on: SF-295 CNS
[59] = tested on: SNB-75 CNS

## CCOC(=O)N/N=C(\CC)NO
[1]
  TGI: > 100 µM
[2]
  TGI: > 100 µM
[3]
  TGI: > 100 µM
[4]
  TGI: > 100 µM
[5]
  TGI: > 100 µM
[6]
  TGI: > 100 µM
[7]
  TGI: > 100 µM
[8]
  TGI: > 100 µM
[9]
  TGI: > 100 µM
[10]
  TGI: > 100 µM
[11]
  TGI: > 100 µM
[12]
  TGI: > 100 µM
[13]
  TGI: > 100 µM
[14]
  TGI: > 100 µM
[15]
  TGI: > 100 µM
[16]
  TGI: > 100 µM
[17]
  TGI: > 100 µM
[18]
  TGI: > 100 µM
[19]
  TGI: > 100 µM
[20]
  TGI: > 100 µM
[21]
  TGI: > 100 µM
[22]
  TGI: > 100 µM
[23]
  TGI: > 100 µM
[24]
  TGI: > 100 µM
[25]
  TGI: > 100 µM
[26]
  TGI: > 100 µM
[27]
  TGI: > 100 µM
[28]
  TGI: > 100 µM
[29]
  TGI: > 100 µM
[30]
  TGI: > 100 µM
[31]
  TGI: > 100 µM
[32]
  TGI: > 100 µM
[33]
  TGI: > 100 µM
[34]
  TGI: > 100 µM
[35]
  TGI: > 100 µM
[36]
  TGI: > 100 µM
[37]
  TGI: > 100 µM
[38]
  TGI: > 100 µM
[39]
  TGI: > 100 µM
[40]
  TGI: > 100 µM
[41]
  TGI: > 100 µM
[42]
  TGI: > 100 µM
[43]
  TGI: > 100 µM
[44]
  TGI: > 100 µM
[45]
  TGI: > 100 µM
[46]
  TGI: > 100 µM
[47]
  TGI: > 100 µM
[48]
  TGI: > 100 µM
[49]
  TGI: > 100 µM
[50]
  TGI: > 100 µM
[51]
  TGI: > 100 µM
[52]
  TGI: > 100 µM
[53]
  TGI: > 100 µM
[54]
  TGI: > 100 µM
[55]
  TGI: > 100 µM
[56]
  TGI: > 100 µM

## CC(=O)N1C(CCc2ccccc2)CC(C)(C=O)C1Cc1ccc(O[Si](C(C)C)(C(C)C)C(C)C)cc1 (stereo not given)
[1]
  TGI: 6.43 µM
[2]
  TGI: 14.3 µM
[3]
  TGI: 15.2 µM
[4]
  TGI: 18.8 µM
[5]
  TGI: 29.7 µM
[6]
  TGI: 11.2 µM
[8]
  TGI: 7.03 µM
[9]
  TGI: 18.9 µM
[10]
  TGI: 15.8 µM
[11]
  TGI: 4.62 µM
[12]
  TGI: 9.03 µM
[13]
  TGI: 10.7 µM
[14]
  TGI: 4.42 µM
[15]
  TGI: 25.9 µM
[16]
  TGI: 23.7 µM
[17]
  TGI: 8.96 µM
[18]
  TGI: 9.99 µM
[19]
  TGI: 19.1 µM
[20]
  TGI: > 26.1 µM
[21]
  TGI: 11.8 µM
[22]
  TGI: 3.85 µM
[57]
  TGI: 4.49 µM
[23]
  TGI: 27.3 µM
[24]
  TGI: 5.26 µM
[25]
  TGI: 11.1 µM
[26]
  TGI: 8.39 µM
[27]
  TGI: 6.4 µM
[28]
  TGI: > 21.5 µM
[29]
  TGI: 19.9 µM
[30]
  TGI: 24.3 µM
[31]
  TGI: 9.05 µM
[32]
  TGI: 5.95 µM
[33]
  TGI: 31.1 µM
[34]
  TGI: 11.8 µM
[35]
  TGI: 16.8 µM
[36]
  TGI: 28.8 µM
[37]
  TGI: 18.6 µM
[38]
  TGI: 12.8 µM
[39]
  TGI: 5.03 µM
[40]
  TGI: 5.81 µM
[41]
  TGI: 15.8 µM
[58]
  TGI: 19.6 µM
[42]
  TGI: 6.03 µM
[43]
  TGI: 8.02 µM
[44]
  TGI: 18.7 µM
[45]
  TGI: 7.64 µM
[46]
  TGI: 29.3 µM
[47]
  TGI: 9.06 µM
[48]
  TGI: 18.1 µM
[59]
  TGI: 18.4 µM
[49]
  TGI: > 21.7 µM
[50]
  TGI: 14.4 µM
[51]
  TGI: 12.9 µM
[52]
  TGI: 13.7 µM
[53]
  TGI: 13.3 µM
[54]
  TGI: 10.6 µM
[55]
  TGI: 16.3 µM
[56]
  TGI: 14.3 µM

## Cc1c(NC(=O)Nc2c(Cl)cccc2Cl)c(=O)n(-c2ccccc2)n1C
[1]
  TGI: > 100 µM
[2]
  TGI: > 100 µM
[3]
  TGI: > 100 µM
[4]
  TGI: > 100 µM
[5]
  TGI: > 100 µM
[6]
  TGI: > 100 µM
[7]
  TGI: > 100 µM
[8]
  TGI: > 100 µM
[9]
  TGI: > 100 µM
[10]
  TGI: > 100 µM
[12]
  TGI: > 100 µM
[13]
  TGI: > 100 µM
[14]
  TGI: > 100 µM
[15]
  TGI: > 100 µM
[16]
  TGI: > 100 µM
[17]
  TGI: > 100 µM
[18]
  TGI: > 100 µM
[19]
  TGI: > 100 µM
[20]
  TGI: > 100 µM
[21]
  TGI: > 100 µM
[22]
  TGI: > 100 µM
[57]
  TGI: > 100 µM
[23]
  TGI: > 100 µM
[24]
  TGI: > 100 µM
[25]
  TGI: > 100 µM
[26]
  TGI: > 100 µM
[27]
  TGI: > 100 µM
[28]
  TGI: > 100 µM
[29]
  TGI: > 100 µM
[30]
  TGI: > 100 µM
[31]
  TGI: > 100 µM
[32]
  TGI: > 100 µM
[33]
  TGI: > 100 µM
[34]
  TGI: > 100 µM
[35]
  TGI: > 100 µM
[36]
  TGI: > 100 µM
[37]
  TGI: > 100 µM
[38]
  TGI: > 100 µM
[39]
  TGI: > 100 µM
[40]
  TGI: > 100 µM
[41]
  TGI: > 100 µM
[58]
  TGI: > 100 µM
[42]
  TGI: > 100 µM
[43]
  TGI: > 100 µM
[44]
  TGI: > 100 µM
[45]
  TGI: > 100 µM
[46]
  TGI: > 100 µM
[47]
  TGI: > 100 µM
[48]
  TGI: > 100 µM
[59]
  TGI: > 100 µM
[49]
  TGI: > 100 µM
[50]
  TGI: > 100 µM
[51]
  TGI: > 100 µM
[52]
  TGI: > 100 µM
[53]
  TGI: > 100 µM
[54]
  TGI: > 100 µM
[55]
  TGI: > 100 µM
[56]
  TGI: > 100 µM

## CC(NP(=O)(c1ccccc1)c1ccccc1)c1ccccc1 (stereo not given)
[1]
  TGI: > 100 µM
[2]
  TGI: > 100 µM
[3]
  TGI: > 100 µM
[4]
  TGI: > 100 µM
[5]
  TGI: > 100 µM
[6]
  TGI: > 100 µM
[7]
  TGI: > 100 µM
[8]
  TGI: > 100 µM
[9]
  TGI: > 100 µM
[10]
  TGI: > 100 µM
[11]
  TGI: > 100 µM
[12]
  TGI: > 100 µM
[13]
  TGI: > 100 µM
[14]
  TGI: > 100 µM
[15]
  TGI: > 100 µM
[16]
  TGI: > 100 µM
[17]
  TGI: > 100 µM
[18]
  TGI: > 100 µM
[19]
  TGI: > 100 µM
[20]
  TGI: > 100 µM
[21]
  TGI: > 100 µM
[22]
  TGI: > 100 µM
[57]
  TGI: > 100 µM
[23]
  TGI: > 100 µM
[24]
  TGI: > 100 µM
[25]
  TGI: > 100 µM
[26]
  TGI: > 100 µM
[27]
  TGI: > 100 µM
[28]
  TGI: > 100 µM
[29]
  TGI: > 100 µM
[30]
  TGI: > 100 µM
[31]
  TGI: > 100 µM
[32]
  TGI: > 100 µM
[33]
  TGI: > 100 µM
[34]
  TGI: > 100 µM
[35]
  TGI: > 100 µM
[36]
  TGI: > 100 µM
[37]
  TGI: > 100 µM
[38]
  TGI: > 100 µM
[39]
  TGI: > 100 µM
[40]
  TGI: > 100 µM
[41]
  TGI: > 100 µM
[58]
  TGI: > 100 µM
[42]
  TGI: > 100 µM
[44]
  TGI: > 100 µM
[45]
  TGI: > 100 µM
[46]
  TGI: > 100 µM
[47]
  TGI: > 100 µM
[48]
  TGI: > 100 µM
[59]
  TGI: > 100 µM
[49]
  TGI: > 100 µM
[50]
  TGI: > 100 µM
[51]
  TGI: > 100 µM
[52]
  TGI: > 100 µM
[53]
  TGI: > 100 µM
[54]
  TGI: > 100 µM
[55]
  TGI: > 100 µM
[56]
  TGI: > 100 µM
